Reference: patent US8283376B2, “Use of substituted 2-aminotetralins for preventive treatment of parkinson's disease” (UCB Pharma GmbH, priority 2003, dated 2012)

What was measured:
[1] = tested on: neurones of the substantia nigra; assay: Acute MPTP model (including apoptosis), FluoroJade staining of degenerating neurones; format: in vivo; conditions: mouse; for No. of degenerating neurones: FluoroJade staining
Method: (§1) The 2-aminotetralins according to the invention, in particular rotigotine, thereby display a neuroprotective effect in a mouse model of Parkinson's disease: Following the acute administration of MPTP, which causes Parkinson's syndrome in both humans and monkeys, the number of the degenerating neurones in the acute phase was measured on the one hand (Table 1) and the functional integrity of the striatum in the sub-acute phase was ascertained on the other by determining the density of the dopamine transporter in the terminal nerve endings (FIGS. 1 and 2).
For the purpose of intoxication, 80 mg/kg of the neurotoxin 1-methyl-4-phenyl-1,2,3,6-tetrahydro-pyridine (MPTP) were administered to mice (in doses of 20 mg/kg at two-hour intervals), which led to the degeneration of approximately 50 to 60% of the neurones of the substantia nigra. Approximately 16 hours beforehand, rotigotine was administered in doses of 0.3, 1 or 3 mg/kg respectively, as the so-called “slow-release formulation”. Diffusion and absorption latencies led to rotigotine then being optimally available when MPTP was administered. The animals were killed after 24 hours and their brains fixed. The brain sections were stained with FluoroJade to identify degenerating cells. The immunohistochemical marking of tyrosine-hydroxylase helped to identify dopaminergic neurones.

[2] = tested on: dopamine transporters in the striatum; assay: Sub-acute MPTP model, dopamine transporter density in the striatum ([125I]PE2I binding); format: in vivo, mice
Method: Groups 1 to 7 were treated as follows: Group 1: untreated control group; Group 2: control group treated with a vehicle solution for rotigotine and MPTP; Group 3: MPTP treatment; Group 4: MPTP treatment plus rotigotine 0.3 mg/kg; Group 5: MPTP treatment plus rotigotine 1.0 mg/kg; Group 6: MPTP treatment plus rotigotine 3.0 mg/kg; Group 7: treatment solely with rotigotine (3.0 mg/kg).
as §1
For the purpose of intoxication, 80 mg/kg of the neurotoxin 1-methyl-4-phenyl-1,2,3,6-tetrahydro-pyridine (MPTP) were administered to mice (in doses of 20 mg/kg at two-hour intervals, groups 3 to 6 in FIGS. 1 and 2), which led to the degeneration of approximately 50 to 60% of the neurones of the substantia nigra (maximum degeneration in group 3 in FIGS. 1 and 2). […]

[3] = tested on: monkeys (macaques) injected with MPTP; assay: Progressive MPTP primate model of morbus Parkinson (pilot study); format: in vivo
Method: In the model used, which reflects the progressive course of morbus Parkinson in primates, monkeys (macaques) were injected with subliminal toxic doses of MPTP for several days. Parkinson's symptoms developed in the model over a period of approximately 2 weeks. As soon as a certain level of damage had been reached, rotigotine was injected daily in a formulation that produced a continuous plasma level over 24 hours. The MPTP injections were stopped as soon as the motor activity had been reduced to a certain extent (approximately 5 days later). The behavior of the animals was assessed on a daily basis. […] A group of animals was killed at the end of both the rotigotine administration and the clearance phase, and the condition of the basal ganglia was histologically and biochemically examined.

[4] = tested on: patients with Parkinson's disease; conditions: cited from earlier work

## CCCN(CCc1cccs1)C1CCc2c(O)cccc2C1 (single isomer, unassigned; (-)) [rotigotine, (−)-5,6,7,8-tetrahydro-6-[propyl[2-(2-thienyl)ethyl]amino]-1-naphthol]
[1]; MPTP intoxication + rotigotine 0.3 mg/kg
  No. of degenerating neurones: 66.7
[1]; MPTP intoxication + rotigotine 1.0 mg/kg
  No. of degenerating neurones: 76.8
[1]; MPTP intoxication + rotigotine 3.0 mg/kg
  No. of degenerating neurones: 34.9
[1]; MPTP-vehicle + rotigotine 3.0 mg/kg (no MPTP)
  No. of degenerating neurones: 3.8
[1]; acute MPTP model, 24 hours, treated vs untreated animals
  Staining of tyrosine hydroxylase (dopaminergic neurones): did not display any differences between the treated and untreated animals
[1]; acute MPTP model, versus MPTP intoxication
  Reduction of the number of degenerating neurones following application of rotigotine: approximately 50%
[1]; acute phase after MPTP
  Number of degenerating neurones in the mesencephalon: reduced
[2]; mice, MPTP 80 mg/kg, rotigotine 0.3, 1 or 3 mg/kg daily for 7 days, slow-release formulation
  Survival of the neurones and their nerve endings (dopamine transporter density in the striatum): improved the survival of the neurones and their nerve endings depending on the dosage
[2]; mouse, sub-acute phase after MPTP
  Dopaminergic innervation of the striatum (density of the dopamine transporter): almost completely maintained or restored
[3]; compared to untreated animals
  Density of the nerve endings in the striatum: significantly increased
[3]; daily rotigotine injections, during treatment and in the following clearance phase
  Motor activity of the animals: clearly improved
[3]; following treatment and the clearance phase
  Content of pre-pro-enkephalin (basal ganglia): showed a tendency towards normalisation
[4]; patients with pronounced dyskinesias, Metman et al. (2001)
  Dyskinesias: improved
[4]; transdermal administration, patients with Parkinson's disease, WO 02/089777
  UPDRS (Unified Parkinson's Disease Rating Scale) score: improvement
